Measured values reported in EPA's ToxRefDB 2.

Key:
rat [1] = settings: Multigenerational reproductive toxicity study, sprague dawley, Inhalation, Whole-Body, dose end: 2 generation
rat [2] = settings: Prenatal developmental toxicity study, sprague dawley, Inhalation, Whole-Body, dose end: 15 GD, group: maternal
[3] = group: offspring, systemic / in life observation / body weight / offspring (pup) weight
[4] = group: parental, systemic / organ weight / epididymis / absolute + systemic / organ weight / epididymis / relative to body weight + systemic / organ weight…
[5] = group: reproductive, reproductive / reproductive performance / fertility / fertility + reproductive / reproductive performance / pregnancy / pregnancy + …
[6] = systemic / in life observation / body weight / body weight gain + systemic / organ weight / spleen / absolute + systemic / organ weight / …

O=[N+]([O-])c1ccccc1 [Nitrobenzene]
LEL (rat [1]; [3]): 40 ppm
LOAEL (rat [1]; [3]): > 40 ppm
NEL (rat [1]; [3]): 10 ppm
NOAEL (rat [1]; [3]): ≥ 40 ppm
LEL (rat [1]; [4]): 40 ppm
LOAEL (rat [1]; [4]): > 40 ppm
NEL (rat [1]; [4]): 10 ppm
NOAEL (rat [1]; [4]): ≥ 40 ppm
NEL (rat [1]; group: reproductive, reproductive / reproductive performance / fertility / fertility + reproductive / reproductive performance / pregnancy / pregnancy): 10 ppm
LEL (rat [1]; [5]): 40 ppm
LOAEL (rat [1]; [5]): > 40 ppm
NOAEL (rat [1]; [5]): ≥ 40 ppm
LOAEL (rat [2]; [6]): > 40 ppm
NEL (rat [2]; [6]): 1 ppm
NOAEL (rat [2]; [6]): ≥ 40 ppm
LEL (rat [2]; systemic / organ weight / spleen / absolute + systemic / organ weight / spleen / relative to body weight): 10 ppm
